Values quoted from earlier work, collected in US12377031B2, “Cosmetic compositions comprising 4-hydroxyacetophenone” (L'OREAL, priority 2020, dated 2025).

## CC(=O)c1ccc(O)cc1 [4-hydroxyacetophenone, 4-Hydroxyacetophenone]
  heating temperature required to solubilize into aqueous systems: ≥ 60 °C
  solubility in water: limited solubility
